Test results: patent US4450269A, “Mono-5-substituted-3-chloro-4H-1,2,6-thiadiazin-4-one antifungal agents” (FMC Corporation, priority 1980, dated 1984)
Structures can show the parent of a compound that is named as a salt. Where two headings read alike, the source gives them in different places.

Assays:
Type in all cases: cell-based
[1] = system: Venturia inaequalis; experiment: Spore germination test; details: VI, 48 hours
Description: VI = Venturia inaequalis
(§1) The test chemical was dissolved or suspended in acetone in an amount such that 0.8 ml of the resulting suspension or solution, mixed with 40 ml water agar produced a water agar solution containing 40, 10, 2.5 and 1 ppm of test chemical. The resulting agar solution, at 50° C., was then divided equally between two sterile petri dishes, each having four separated quadrants, and allowed to solidify. […] quadrants of each dish were flooded with 0.1 ml of a spore suspension in sterile water. Spores of two pathogens, Erysiphe polygoni and Uromyes phaseoli, from infected plant leaves, were brushed on the remaining two quadrants. The tests were then incubated 48 hours, at 24° C.
(§2) Readings were then taken and the percentage of germinated spores calculated. From this percentage, a spore germination rating was assigned as follows: […]

[2] = system: Cladosporium cucumerinum; experiment: Spore germination test; details: CC, 48 hours
Description: CC = Cladosporium cucumerinum
as §1, §2

[3] = system: Phytophthora infestans; details: PI, 48 hours

| Compound | Spore Germination Rating ([1]; 1.0 ppm) | Spore Germination Rating ([1]; 2.5 ppm) | Spore Germination Rating ([1]; 10 ppm) | Spore Germination Rating ([1]; 40 ppm) | Spore Germination Rating ([2]; 1.0 ppm) | Spore Germination Rating ([2]; 2.5 ppm) | Spore Germination Rating ([2]; 10 ppm) | Spore Germination Rating ([2]; 40 ppm) | Spore Germination Rating ([3]; 1.0 ppm) | Spore Germination Rating ([3]; 2.5 ppm) | Spore Germination Rating ([3]; 10 ppm) | Spore Germination Rating ([3]; 40 ppm) | Spore Germination Rating ([1]; 1.0 ppm, hydrochloride) | Spore Germination Rating ([1]; 2.5 ppm, hydrochloride) | Spore Germination Rating ([1]; 10 ppm, hydrochloride) | Spore Germination Rating ([1]; 40 ppm, hydrochloride) | Spore Germination Rating ([3]; 2.5 ppm, hydrochloride) |
| --- | --- | --- | --- | --- | --- | --- | --- | --- | --- | --- | --- | --- | --- | --- | --- | --- | --- |
| 3-chloro-5-(bromophenoxy)-4H-1,2,6-thiadiazin-4-one [Compound 33] | 0 (0-10) | 0 (0-10) | 0 (0-10) | 0 (0-10) | 0 (0-10) | 0 (0-10) | 0 (0-10) | 0 (0-10) | 0 (0-10) | 0 (0-10) | 0 (0-10) | 0 (0-10) | – | – | – | – | – |
| 3-chloro-5-[methylaminocarbonyloxy)phenoxyl]-4H-1,2,6-thiadiazin-4-one [Compound 36] | – | – | – | – | 4 (80-100) | 3 (60-80) | – | 0 (0-10) | 4 (80-100) | 4 (80-100) | 4 (80-100) | 0 (0-10) | – | – | – | – | – |
| O=c1c(Cl)nsnc1Oc1ccccc1 [Compound 2, 3-chloro-5-phenoxy-4H--1,2,6-thiadiazin-4-one] | 4 (80-100) | 2 (40-60) | 0 (0-10) | 0 (0-10) | 4 (80-100) | 4 (80-100) | 0 (0-10) | 0 (0-10) | 0 (0-10) | 1 (10-40) | 1 (10-40) | 0 (0-10) | – | – | – | – | – |
| Cc1ccc(Oc2nsnc(Cl)c2=O)cc1 [Compound 3, 3-chloro-5-(4-methylphenoxy)-4H--1,2,6-thiadiazin-4-one] | 4 (80-100) | 4 (80-100) | 0 (0-10) | 0 (0-10) | 4 (80-100) | 4 (80-100) | 0 (0-10) | 0 (0-10) | 3 (60-80) | 2 (40-60) | 0 (0-10) | 0 (0-10) | – | – | – | – | – |
| Nc1ccc(Oc2nsnc(Cl)c2=O)cc1 [Compound 27, 5-(4-aminophenoxy)-3-chloro-4H--1,2,6-thiadiazine-4-one hydrochloride] | – | – | – | – | – | – | – | – | – | – | – | – | 0 (0-10) | 0 (0-10) | 0 (0-10) | 0 (0-10) | 3 (60-80) |
| O=c1c(Cl)nsnc1Oc1ccc(O)cc1 [Compound 35, 3-chloro-5-(4-hydroxyphenoxy)-4H-1,2,6-thiadiazin-4-one] | – | – | – | – | 4 (80-100) | 0 (0-10) | 3 (60-80) | 0 (0-10) | 4 (80-100) | 0 (0-10) | 0 (0-10) | 0 (0-10) | – | – | – | – | – |
| O=C(Nc1ccccc1)Oc1ccc(Oc2nsnc(Cl)c2=O)cc1 [Compound 37, 3-chloro-5-[4-(phenylaminocarbonyloxy)phenoxy]-4H-1,2,6,-thiadiazin-4-one] | – | – | – | – | 0 (0-10) | 1 (10-40) | 0 (0-10) | 0 (0-10) | 4 (80-100) | 4 (80-100) | 4 (80-100) | 4 (80-100) | – | – | – | – | – |
| O=C(OCc1ccccc1)Oc1ccc(Oc2nsnc(Cl)c2=O)cc1 [Compound 38, 3-chloro-5-[4-(phenylmethoxycarbonyloxy)phenoxyl]-4H-1,2,6-thiadiazin-4-one] | – | – | – | – | 4 (80-100) | 4 (80-100) | 3 (60-80) | 3 (60-80) | 4 (80-100) | 4 (80-100) | 4 (80-100) | 3 (60-80) | – | – | – | – | – |
| CSc1ccc(Oc2nsnc(Cl)c2=O)cc1 [Compound 39, 3-chloro-5-[(4-methylthio)phenoxy]-4H-1,2,6,-thiadiazin-4-one] | – | – | – | – | 1 (10-40) | 0 (0-10) | 0 (0-10) | 0 (0-10) | 4 (80-100) | 4 (80-100) | 3 (60-80) | 3 (60-80) | – | – | – | – | – |
| C[S+]([O-])c1ccc(Oc2nsnc(Cl)c2=O)cc1 (stereo not drawn) [Compound 40, 3-chloro-5-[(4-methylsulfinyl)phenoxy]-4H-1,2,6,-thiadiazin-4-one] | – | – | – | – | 4 (80-100) | 0 (0-10) | 0 (0-10) | 0 (0-10) | 4 (80-100) | 3 (60-80) | 2 (40-60) | 0 (0-10) | – | – | – | – | – |
| CS(=O)(=O)c1ccc(Oc2nsnc(Cl)c2=O)cc1 [Compound 41, 3-chloro-5-[(4-methylsulfonyl)phenoxy]-4H--1,2,6-thiadiazin-4-one] | – | – | – | – | 0 (0-10) | 0 (0-10) | 0 (0-10) | 0 (0-10) | 4 (80-100) | 2 (40-60) | 0 (0-10) | 0 (0-10) | – | – | – | – | – |
| N#CCc1ccc(Oc2nsnc(Cl)c2=O)cc1 [Compound 46, 3-chloro-5-[(4-cyanomethyl)-phenoxy]4H--1,2,6-thiadiazin-4-one] | – | – | – | – | 4 (80-100) | 0 (0-10) | 0 (0-10) | 0 (0-10) | 4 (80-100) | 1 (10-40) | 1 (10-40) | 0 (0-10) | – | – | – | – | – |
| COc1ccc(Cl)c(Oc2nsnc(Cl)c2=O)c1 [Compound 51, 3-chloro-5-[(2-chloro-5-methoxy)phenoxy]-4H--1,2,6-thiadiazin-4-one] | – | – | – | – | 3 (60-80) | 0 (0-10) | 0 (0-10) | 0 (0-10) | 4 (80-100) | 3 (60-80) | 1 (10-40) | 0 (0-10) | – | – | – | – | – |
| COc1cc(Cl)cc(Oc2nsnc(Cl)c2=O)c1 [Compound 52, 3-chloro-5-[(3-chloro-5-methoxy)phenoxy]-4H--1,2,6-thiadiazin-4-one] | – | – | – | – | 4 (80-100) | 0 (0-10) | 0 (0-10) | 0 (0-10) | 4 (80-100) | 0 (0-10) | 0 (0-10) | 0 (0-10) | – | – | – | – | – |
| O=c1c(Cl)nsnc1Oc1ccc([N+](=O)[O-])cc1Cl [Compound 53, 3-chloro-5-(2-chloro-4-nitrophenoxy)-4H--1,2,6-thiadiazin-4-one] | – | – | – | – | 0 (0-10) | 0 (0-10) | 0 (0-10) | 0 (0-10) | 1 (10-40) | 0 (0-10) | 0 (0-10) | 0 (0-10) | – | – | – | – | – |
| Cc1ccc(Cl)c(Oc2nsnc(Cl)c2=O)c1 [Compound 56, 3-chloro-5-[(2-chloro-5-methyl)phenoxy]-4H--1,2,6-thiadiazin-4-one] | – | – | – | – | 4 (80-100) | 0 (0-10) | 0 (0-10) | 0 (0-10) | 4 (80-100) | 0 (0-10) | 0 (0-10) | 0 (0-10) | – | – | – | – | – |
| COc1cc(Oc2nsnc(Cl)c2=O)cc(OC)c1C(C)=O [Compound 61, 3-[(4-acetyl-3,5-dimethoxy)-phenoxy]-5-chloro-4H--1,2,6-thiadiazin-4-one] | – | – | – | – | 4 (80-100) | 0 (0-10) | 0 (0-10) | 0 (0-10) | 4 (80-100) | 4 (80-100) | 3 (60-80) | 0 (0-10) | – | – | – | – | – |
